The supplement of paper PMC10784567
± gives the standard deviation of the averaged measurements.

Compound: C=C1C[C@H]2C=Nc3cc(OCCCCCOc4cc5c(cc4OC)C(=O)N4CC(=C)C[C@H]4C=N5)c(OC)cc3C(=O)N2C1 [SG2057]
Experiment: absolute IC50 (cell viability, CellTiter-Glo); higher = less potent
Settings: treatment time: 3 days
Procedure: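 Large cancer cell line panel screens in 384-well plates. Cells were treated for 3 days with a 9-point dose titration of the free PBD dimer SG2057; viability was read with CellTiter-Glo. Absolute IC50 came from a four-parameter Hill fit normalised to the median of vehicle (DMSO) wells. Several independent screens (projects) per cell line are averaged; values in µM, lowest-dose floor about 1.524e-5 µM.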

Row | Test System | absolute IC50 [pM]
1 | WM-115 | 436 ± 570
2 | SK-MEL-1 | 1110 ± 280
3 | HEC-59 | 472
4 | NCI-H838 | 1340
5 | MDA-MB-436 | 326 ± 200
6 | YAPC | 1160 ± 740
7 | SK-MEL-2 | 1160 ± 550
8 | BT-474 | 4090 ± 3700
9 | HeLa | 1800
10 | 8505C | 595
11 | 501A | 378 ± 250
12 | COLO 853 | 1000 ± 730
13 | WiDr | 1380 ± 420
14 | JHH-7 | 1940
15 | OVCAR-4 | 1330 ± 490
16 | KP-3L | 2690 ± 260
17 | 105KC (DODx) | 3560
18 | FTC-238 | 101
19 | HPAF-II | 4040 ± 150
20 | LUDLU-1 | 9430
21 | 1624-16997 (Tumor A) | 926
22 | HCC827 | 2160 ± 4300
23 | SK-N-SH | 114
24 | 66c14 | 725
25 | HGC-27 | 406 ± 86

Row | Test System | absolute IC50 [pM]
26 | NCI-H1339 | 155
27 | HCC70 (DODx) | 4647 ± 17
28 | huH-1 | 2280
29 | HCA-1 | 4690
30 | A20 | < 15.2
31 | RERF-LC-KJ | 1650 ± 2500
32 | G-401 | 305 ± 160
33 | B16-F10 Luciferase | 894
34 | G121 | 799 ± 380
35 | T98G | 3180 ± 3700
36 | MEL-JUSO | 875 ± 1000
37 | SW 480 | 462 ± 510
38 | 143B | 191
39 | COLO 320 | 12000
40 | KG-1 | 1220 ± 910
41 | HSC-5 | 621
42 | HM7 | 488 ± 270
43 | OVCAR433 | 462 ± 470
44 | SNB-19 | 187
45 | 8305C | 706
46 | JHH-2 | 4840 ± 8100
47 | HOP-18 | 3890
48 | SNU-387 | 5760
49 | OV56 | 195 ± 300
50 | NCI-H1792 | 2240

Row | Test System | absolute IC50 [pM]
51 | HN | 225
52 | CAMA-1 | 5020
53 | HCC880 | 2860
54 | UM-RC-7 | 672
55 | ECC-1 | 1040
56 | NCI-H1993 | 564
57 | NCI-H920 | 9130
58 | NCI-H1648 | 8580
59 | COLO 704 | 3360 ± 2600
60 | KPP-1 (KPP-PDAC) XENOGRAFT | 168
61 | COV413B | 2730 ± 3900
62 | HCC4017 | 193
63 | EL4 | 92.9
64 | SK-N-AS | 187
65 | NCI-H1734 | 236
66 | GCH-nu-YS | 242
67 | JHH-1 | 2070 ± 3100
68 | NCI-H446 | 244
69 | LCLC-103H | 1110 ± 1200
70 | CAL-12T | 3570 ± 3200
71 | HEC-108 | 1420
72 | SW 403 | 3640 ± 1600
73 | PEO1 | 538 ± 190
74 | HLE | 2700
75 | HCC2302 | 8980

Row | Test System | absolute IC50 [pM]
76 | G59 | 803 ± 820
77 | PK-45H | 1200 ± 940
78 | KINGS-1 | 2750
79 | MM.1S | 474 ± 490
80 | COR-L47 | 4010
81 | IGR-37 | 339 ± 470
82 | IM-95 | 2410
83 | AM-38 | 4530
84 | SK-N-BE(2) | 1640
85 | RC-K8 | 667 ± 1000
86 | SNU-719 | 3720 ± 4000
87 | Kasumi-1 | 4110
88 | ASH-3 | 925
89 | KMM-1 | 515 ± 79
90 | LA-4 | 1590
91 | NAMALWA | 64.3 ± 31
92 | B-CPAP | 346
93 | OE33 | 61.2
94 | NCI-H2106 | 1360 ± 710
95 | U-2932 | 213 ± 230
96 | NCI-H889 | 1320
97 | ID8 | 292
98 | NB(TU)1-10 | 604
99 | JJ012 (DODx) | 1420
100 | HCC2218 | 1160

Row | Test System | absolute IC50 [pM]
101 | HuCCT1 | 2630 ± 2500
102 | HCC1623 | 5300
103 | SK-N-DZ | 5040
104 | SJSA-1 | 95.4
105 | SISO | 153
106 | NCI-H727 | 6750
107 | NCI-H522 | 544
108 | LL/2 | 449
109 | SW 1990 | 516 ± 220
110 | Caki-1 | 52
111 | FU97 | 1570
112 | IGR-1 | 750 ± 910
113 | KR7251 | 557
114 | ABC-1 | 365 ± 240
115 | HCC366 | 4650
116 | HCC89 | 4660 ± 3100
117 | SW 780 | 754
118 | NCI-H146 | 508
119 | GI-1 | 311
120 | HEC-116 | 464
121 | NCI-H2052 | 717
122 | Hs 578T | 1510 ± 1300
123 | SH-SY5Y | 142
